Reference: US20080269163A1, “Methods and Compositions for Protecting Cells from Ultrasound-Mediated Cytolysis” (priority 2004, published 2008)
Entries after “also recorded” stand apart in the source; their conditions may differ. One block for each molecule: values may come before it.

Assays:
HL-60 cells [1] = test: Ultrasound-induced cytolysis of HL-60 cells, Coulter counter analysis; format: cell-based; details: for effect on ultrasound induced cytolysis (% cytolysis) / concentration giving complete (approximately 100%) protection from ultrasound induced cytolysis: 1.057 MHz (1 MHz), 10 W; for effect on ultrasound induced cytolysis (% cytolysis) / concentration giving complete (approximately 100%) protection from ultrasound induced cytolysis / effect on ultrasound induced cytolysis: 5 s; for concentration giving complete (approximately 100%) protection from ultrasound induced cytolysis: air exposed; for change of protection from cytolysis as frequency is decreased: frequency decreased from 1 MHz to 42 kHz; for cells protected from immediate cytolysis: 7 mM HGP
Protocol: Cells: HL-60 myeloid leukemia cells (American Type Culture Collection) were grown in a suspension of RPMI 1640 medium (GIBCO, Gaithersburg, Md.) containing 10% calf serum. The population of HL-60 cells doubled every 23±1 hr (hour ±SEM) when incubated at 37° C. in a CO2 (5%) containing atmosphere. Cells were harvested, re-suspended in fresh RPMI medium and kept at 25° C. until the start of the experiment (typically less than 1 hr). […] The fraction of intact cells before and after ultrasound was determined using a Coulter multisizer (model IIe) connected to a sampling stand (model IIa). The number of intact cells was determined by counting the total number of particles under the bell shaped curve (e.g., FIG. 1a) before and following sonolysis. The cytolysis percentage was determined by subtracting the number of intact cells following sonolysis from the number of intact cells before sonolysis. This value was divided by the number of intact cells before sonolysis and multiplied by 100 to obtain the cytolysis percentage value.
The temperature of the coupling water was 25° C.
We have confirmed the validity of this technique for studying the effects of sonolysis in our ultrasound system by the trypan blue exclusion assay. The mean size of HL-60 cells was determined from the Coulter counter results prior to sonolysis and was approximately 650 μm3 (FIG. 1a) which equates to a mean cell diameter of […].
42 kHz sonolysis was conducted in a similar way but using a Branson ultrasound bath (model number 1510). […] At 42 kHz, a transducer was used to decrease the power of the bath to 50% of its original value. The temperature of the coupling water at all frequencies was 25° C.
(§1) The percentage of cytolysis of HL-60 cells was determined by measurement of the cell size distribution using a Coulter multisizer. This method correlates well with percentage cytolysis measured using the Trypan blue exclusion assay immediately following sonolysis and is explained in detail elsewhere (Miyoshi, N. et al. 2003). […] This immediate ultrasound induced cytolysis (i.e., % cytolysis) is represented in FIGS. 2, 10-12 at a concentration of zero.
42 kHz sonolysis was conducted in a similar way but using a Branson ultrasound bath (model number […]). […] At 42 kHz, a transducer was used to decrease the power of the bath to 50% of its original value. The temperature of the coupling water at all frequencies was 25° C.
as §1, with “represented” for “represented in FIGS. 2, 10-12”

HL-525 cells = test: Sonolysis of HL-525 cells, % cytolysis; format: cell-based; details: 1 MHz (1057 kHz), 10 W, 5 sec
Protocol: Conditions: 42 kHz, 50% power, 5 sec, 20° C., % cytolysis ±SD (n=6).
Conditions: 354 kHz, 15 W, 5 sec, 20° C., % cytolysis ±SD (n=6).
Conditions: 614 kHz, 20 W, 5 sec, 20° C., % cytolysis ±SD (n=6).
Conditions: 1057 kHz, 10 W, 5 sec, 20° C., % cytolysis ±SD (n=6).

HL-60 cells [2] = test: Exposure of HL-60 cells to glucopyranosides alone (no ultrasound); details: 15 minute exposure at highest concentrations used
Protocol: (§2) Cell experiments were completed within 5 to 10 minutes of adding the glucopyranosides to the cell suspensions, and each data point represents an average ±SEM, where n=5 to 8. […] For this reason, we only studied the effects of MGP, HGP, HepGP and OGP on the ultrasound induced cytolysis of HL-60 cells.

HL-60 cells [3] = test: Mechanical fragility test (Burrell wrist action shaker, glass beads), HL-60 cells; format: cell-based; details: for protection from mechanical induced cytolysis: 30 min shaking, 50% power, HGP 1-10 mM, HepGP 0.1-10 mM, MGP 10-30 mM, OGP 0.3-3 mM
Protocol: 10 ml borosilicate glass beads in a 125 ml conical flask. 10 ml cell suspension in the presence and absence (control) of various glucopyranosides (HGP, HepGP, MGP, and OGP) in a cell culture medium containing 10% DPBS solution. Shaking was conducted over a period of 30 minutes. Each data point represents ±SD, where n=5.
Mechanical Fragility Test: the effect of glucopyranosides on the mechanical fragility of the cells was determined by inducing mechanical shear stress to a cell suspension. This involved placing 10 mL of HL-60 cells in suspension in 125 ml sized screw capped conical flasks containing 10 mL of borosilicate solid-glass beads (Sigma-Aldrich, mean particle diameter of 3 mm), similar to the methods described elsewhere (Carstensen, E. L. et al. 1993; Miller, M. W. et al. 2003). The samples were then shaken in a Burrell wrist action shaker (model number 75, Burrell Scientific, Pittsburgh, Pa.) at 50% power for a duration of 30 minutes. Using this method, up to eight sample solutions could be run at one time. […] In samples containing glucopyranosides, the surfactant was dissolved in 1 ml of DPBS and added to 9 ml of the cell suspension.

HL-60 cells [4] = tested on: HL-60 cells
Protocol: as §2

HL-60 cells [5] = test: Reproduction assay of HL-60 cells following sonolysis; format: cell-based; details: for reproductive viability (reproduction fraction) over 24 hours after sonolysis: 5 seconds, 10 W, varying concentrations; for reproduction ratio one or two days post treatment: 7 mM HGP
Protocol: Cells were allowed to reproduce for 24 hours. Reproduction fraction ±SD (where n=6 to 8) is calculated by dividing the number of cells counted following 24 hours of reproduction by the number of cells counted at the start of incubation.
Control data points were run in triplicate with a standard deviation of less than 10%. Sonolysis points represent an average of six separate cell suspensions, with a standard deviation of less than 10%.
The reproduction ratio is the number of cells present one or two days post treatment divided by the number of cells present on the treatment day.
Reproduction Assay: for FIG. 5, a reproduction assay was conducted over a period of 10 days to determine the long term viability of cells following ultrasound treatment in the presence of either HGP or OGP at concentrations where 100% protection from cytolysis occurred. The long term viability of treated cell suspensions was compared to the long term viability of untreated control cell suspensions held under exactly the same conditions (FIG. 5). Immediately following sonolysis, a 100 μl aliquot of the 1 ml treated (or control) samples was used for Coulter counter analysis in order to confirm that 100% of the cells had survived the ultrasound treatment. Viability of the cells was determined by using a very small volume (approx. 20 μl) of suspension for trypan blue staining. The remaining ≈0.9 ml cell suspensions were diluted to 3 ml with fresh medium, centrifuged, washed with fresh medium, and finally re-suspended in fresh medium (2 ml). 100 μl of this new 2 ml of cells suspended in fresh medium was then used to determine the cell concentration. This cell concentration is defined as ‘the cell concentration at Day 0 after ultrasound treatment’ (Ci). Cell suspensions were then kept at 37° C. in a 5% CO2 incubator for a total of 10 days.
Over the 10 day period, cells had to be spun down occasionally and re-suspended in fresh medium to replenish the nutrients necessary for a healthy cell population. 100 μl aliquots of the original cell suspension were used to measure the cell concentration both before (Cfinal) and following (Cinitial) re-suspension in fresh medium. This procedure, although necessary, results in a slight underestimation in the expected number of cells on any given day, when compared to the original cell concentration, Ci. To account for this small, but significant underestimation, we calculated the actual number of cells that would have been observed had we not been periodically extracting small aliquots for the detection of cell numbers by the Coulter counter. This was done by calculating a ‘reproduction ratio’, determined by dividing Cfinal by Cinitial that was measured one or two days earlier and comparing this ratio to (Ci), to give a ‘real cell population’. It should be noted that this calculation is done simply as a matter of convenience and that the reproduction ability of the treated samples was compared to control samples that were treated in the same way over the day period, as shown in FIG. 5. Verification of this method is given by the fact that the cells of the control samples double approximately every day (FIG. 5), as expected for HL-60 cells under the conditions of incubation in the current study.

SMILES: CCCCCCCCO[C@H]1O[C@H](CO)[C@@H](O)[C@H](O)[C@H]1O [alphaOGP, n-octyl-α-D-glucopyranoside]
effect on ultrasound induced cytolysis (% cytolysis) (HL-60 cells [1]; HL-60 cells): very slight protective effect

SMILES: OC[C@H]1O[C@@H](OCCCC2CCCCC2)[C@H](O)[C@@H](O)[C@@H]1O [Cyglu-3, 3-cyclohexyl-1-propyl-β-D-glucoside]
concentration giving complete (approximately 100%) protection from ultrasound induced cytolysis (HL-60 cells [1]; HL-60 cells): 5 mM

SMILES: CCCCCCO[C@@H]1O[C@H](CO)[C@@H](O[C@H]2O[C@H](CO)[C@@H](O)[C@H](O)[C@H]2O)[C@H](O)[C@H]1O [HMP, Hexyl-β-D maltopyranoside]
concentration giving complete (approximately 100%) protection from ultrasound induced cytolysis (HL-60 cells [1]; HL-60 cells): 1 mM

effect on reproduction rate of the cells over 120 hours (HL-60 cells [2]): no detrimental effect
SMILES: CO[C@@H]1O[C@H](CO)[C@@H](O)[C@H](O)[C@H]1O [MGP, Methyl-β-D-Glucopyranoside, reference compound]
protective effect for HL-525 cells compared to HL-60 cells (HL-525 cells): different protection effects | effect on ultrasound induced cytolysis (% cytolysis) (HL-60 cells [1]; HL-60 cells): no effect | effect on ultrasound induced cytolysis at any ultrasound frequency (HL-60 cells [1]; HL-60 cells, 42 kHz to 1 MHz, MGP 10 to 30 mM): effectively has no effect | protection from mechanical induced cytolysis (HL-60 cells [3]): none of the glucopyranosides tested

SMILES: CCCCCCCCCCO[C@@H]1O[C@H](CO)[C@@H](O)[C@H](O)[C@H]1O [DGP, decyl-β-D-Glucopyranoside]
lysis of cells on exposure (Coulter counter, trypan blue) (HL-60 cells [4]): immediate lysis of a large population of cells

effect on reproduction rate of the cells over 120 hours (HL-60 cells [2]): no detrimental effect
SMILES: CCCCCCCO[C@@H]1O[C@H](CO)[C@@H](O)[C@H](O)[C@H]1O [HepGP, heptyl-β-D-Glucopyranoside]
reproductive viability (reproduction fraction) over 24 hours after sonolysis (HL-60 cells [5]): continue to reproduce at the same rate as untreated control samples | effect on ultrasound induced cytolysis (% cytolysis) (HL-60 cells [1]; HL-60 cells): fully protects | concentration giving complete (approximately 100%) protection from ultrasound induced cytolysis (HL-60 cells [1]; HL-60 cells): 3 mM | effect on ultrasound induced cytolysis (HL-60 cells [1]; HL-60 cells, 42 kHz, 50% power): very small sonosensitization | effect on ultrasound induced cytolysis (HL-60 cells [1]; HL-60 cells, 614 kHz, 20 W): fully protects | change of protection from cytolysis as frequency is decreased (HL-60 cells [1]; HL-60 cells): less effective | protection from mechanical induced cytolysis (HL-60 cells [3]): none of the glucopyranosides tested | effect on cell membrane stability to mechanical shear stress (HL-60 cells [3]; relatively high concentrations): significant destabilization of the cell membrane to mechanical shear stress

effect on reproduction rate of the cells over 120 hours (HL-60 cells [2]): no detrimental effect
SMILES: CCCCCCO[C@@H]1O[C@H](CO)[C@@H](O)[C@H](O)[C@H]1O [HGP, hexyl-β-D-Glucopyranoside]
reproduction ratio one or two days post treatment (HL-60 cells [5]; 354 kHz): continue to reproduce at the same rate | reproduction ratio one or two days post treatment (HL-60 cells [5]; 614 kHz): continue to reproduce at the same rate | reproduction of treated cells over 10 days (HL-60 cells [5]; HGP 5 mM, 1.057 MHz, 15 seconds, 40 W and 60 W): continue to reproduce at a rate comparable to that of untreated control cells | reproductive viability (reproduction fraction) over 24 hours after sonolysis (HL-60 cells [5]): continue to reproduce at the same rate as untreated control samples | cells protected from immediate cytolysis (HL-60 cells [1]; 354 kHz): 100% | cells protected from immediate cytolysis (HL-60 cells [1]; 614 kHz): 100% | ultrasound induced cytolysis (HL-60 cells [1]; HGP 5 mM, 1.057 MHz, 15 seconds, 30 W): eliminated | protection from sonolysis under a range of ultrasound intensities and exposure times (HL-60 cells [1]; HGP 5 mM, 1.057 MHz, extreme conditions with almost 100% cytolysis without HGP): could protect cells from cytolysis even during extreme conditions of sonolysis | effect on ultrasound induced cytolysis (% cytolysis) (HL-60 cells [1]; HL-60 cells): fully protects | effect on ultrasound induced cytolysis (HL-60 cells [1]; HL-60 cells, 42 kHz, 50% power): very small sonosensitization; also recorded: not at 42 kHz | effect on ultrasound induced cytolysis (HL-60 cells [1]; HL-60 cells, 354 kHz, 15 W): fully protects | effect on ultrasound induced cytolysis (HL-60 cells [1]; HL-60 cells, 614 kHz, 20 W): fully protects | change of protection from cytolysis as frequency is decreased (HL-60 cells [1]; HL-60 cells): less effective | protection from mechanical induced cytolysis (HL-60 cells [3]): none of the glucopyranosides tested

SMILES: CCCCCCCNC(=O)OC[C@H]1O[C@H](OC)[C@H](O)[C@@H](O)[C@@H]1O [ANAMEG-7, methyl-6-O—(N-heptylcarbamoyl)-α-D-glucopyranoside]
concentration giving complete (approximately 100%) protection from ultrasound induced cytolysis (HL-60 cells [1]; HL-60 cells): 3 mM
